Measured values as given in the NIST ThermoML archive (doi:10.1016/j.tca.2018.06.008).
Numbers after ± are expanded uncertainties.

Conditions: 101.33 kPa, Liquid, Hot disk method

Structure (SMILES) | thermal conductivity (298.15 K) | thermal conductivity (303.15 K) | thermal conductivity (308.15 K) | thermal conductivity (313.15 K) | thermal conductivity (318.15 K) | thermal conductivity (323.15 K)
OCCO [1,2-ethanediol] | 0.2514 ± 0.0074 W/m/K | 0.2535 ± 0.0061 W/m/K | 0.2551 ± 0.012 W/m/K | 0.2559 ± 0.0076 W/m/K | 0.2568 ± 0.011 W/m/K | 0.2579 ± 0.011 W/m/K
O [water] | 0.6132 ± 0.011 W/m/K | 0.6201 ± 0.012 W/m/K | 0.6249 ± 0.012 W/m/K | 0.6302 ± 0.013 W/m/K | 0.6368 ± 0.011 W/m/K | 0.6427 ± 0.014 W/m/K
